Test [1] has as its target T1, IRAK4 (Homo sapiens, UniProt Q9NWZ3).
T1 sequence (Q9NWZ3 1-460): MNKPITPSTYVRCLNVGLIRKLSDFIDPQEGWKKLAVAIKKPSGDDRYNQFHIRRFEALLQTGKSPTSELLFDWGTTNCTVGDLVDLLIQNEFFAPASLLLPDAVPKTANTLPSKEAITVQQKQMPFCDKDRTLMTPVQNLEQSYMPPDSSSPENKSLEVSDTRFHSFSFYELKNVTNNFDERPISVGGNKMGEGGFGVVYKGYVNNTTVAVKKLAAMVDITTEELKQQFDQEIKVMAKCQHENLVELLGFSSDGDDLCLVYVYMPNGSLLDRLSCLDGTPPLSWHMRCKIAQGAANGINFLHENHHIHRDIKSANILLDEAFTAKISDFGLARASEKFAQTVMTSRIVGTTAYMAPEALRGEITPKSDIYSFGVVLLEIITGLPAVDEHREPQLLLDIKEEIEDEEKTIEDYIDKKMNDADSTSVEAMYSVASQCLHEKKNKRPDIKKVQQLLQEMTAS
Kind of test: cell-based. Format: cell-based. Also noted: endogenous in cells; host or cells: THP-1 cells. Conditions: for Dmax: THP-1; for DC50: WB, THP-1 cells, 24 hours incubation. How it is done: The degradation level of IRAK4 in THP-1 cells was detected by Western Blot technique. 1,000,000 THP-1 cells were seeded in a 12-well plate (Corning 3513) with 1 mL per well. A stock solution of the compound in 1000× gradient dilution was prepared, with a maximum concentration of 300 µM, and serially diluted with DMSO in 1:3, for a total of 9 doses. The compound in 1000× gradient dilution was added to the 12-well plate with 1 µL per well. After incubation under a condition of 37°C, 5% CO2 for 24 hours, the cells were collected into a 2 mL centrifuge tube, and centrifuged at 5,000 rpm for 5 minutes. The supernatant was discarded. 100 µL RIPA lysis solution (Beyotime, P0013C) was added. After mixing well, the cells were lysed on ice for 10 min, and centrifuged at 14,000 rpm at 4°C for 10 min. The supernatant was collected. Protein content was determined using BCA (Solarbio, PC0020-10*50T). 75 µL of the supernatant was taken, and 25 µL NuPAGE LDS Sample Buffer (4X) (Thermo B0007) (with 5% β-mercaptoethanol added before use) was added to each tube to prepare samples, followed by heating in a metal bath at 100°C for 5 min. 20 µL was loaded into a 4-12% Bis-Tris gel (Invitrogen, WG1402BOX) to prepare 1x NuPAGE™ MOPS buffer (Invitrogen, NP0001). The electrophoresis apparatus was set to a constant voltage of 120V for 1.5 hours. 1x NuPAGE™ MOPS SDS electrophoresis buffer (20X) (Invitrogen, NP0001) was prepared. The electrophoresis apparatus was set to a constant current of 300 mA for 100 minutes. The protein was transferred to a PVDF membrane (Millipore, IPVH00010). The PVDF membrane was blocked with a blocking solution (Licor, 927-60001) at room temperature for 1 h, IRAK4 antibody (Abcam ab32511) was diluted 1:1,000, GAPDH (Abcam ab8245) was diluted 1:3,000, and then the antibody was incubated overnight at 4°C. The next day, the membrane was washed three times with 1× TBST (Elabscience E-BC-R335), for 5 min each time. Secondary antibodies IR Dye 800 CW Goat anti-rabbit (Licor #926-32211) and IRDye® 680RD Goat anti-Mouse (Licor #926-68070) were diluted 1:10,000, followed by incubation in the dark at room temperature for 1 h. The membrane was washed three times with TBST, for 5 min each time. Using Odyssey imaging system Li-cor Odyssey Clx, signals were detected and data were analyzed. Data were analyzed using GraphPad (Prism 9.3) software with non-linear regression (non-liner inhibitor(Bell-shaped)) and a 4 parameter, with parameters as follows: • Span 1 =Plateau1-Dip • Span2=Plateau2-Dip Section1 = Span1/(1+10^(∧)((LogEC50_1−X)*nH1)) [formula] Section2 = Span2/(1+10^(∧)((X−LogEC50_2)*nH2)) [formula]
(§1) The equation is as follows: Y=Dip+Section1+Section2.

Test [2] deals with T1, IRAK4. Kind of test: detection of proteolysis by Hibit fluorescence (IRAK4 degradation). Format: cell-based. Also on record: host or cells: HEK293T cells (ATCC). The settings on record: for Dmax: HEK-293T; for DC50: Hibit, HEK293T cells transfected with HiBiT-tagged IRAK4 plasmid, 24 hours incubation. On the procedure: Using the HiBiT tag technology, the sequence containing the HiBiT tag (Seq. ID. No. 1, 5'-[…]-3', Beijing Tsingke Biotech Co., Ltd.) was ligated to the IRAK4 plasmid (Seq. ID. No. 2, 5'-Eco[…] NOT1-3', Beijing Tsingke Biotech Co., Ltd.). The plasmid was transfected into HEK293T cells (ATCC), and the HiBiT […] was measured to characterize the compound-induced IRAK4 degradation. 300,000 HEK293T cells in 1 mL of DMEM medium (Gbico, 11965-092) were seeded into a 6-well plate (Corning 3516) , followed by being placed overnight in a constant incubator at 37°C, 5% CO2. 3 µL X-tremeGENE™ 9 DNA Transfection Reagent (Roche #06365787001), and 1 µg IRAK4 plasmid were added to 200 µL Opti-MEM (Gibico 31985062), followed by gentle mixing. The 6-well plate that had been incubated overnight was taken out and allowed to stand at room temperature for 15 minutes, followed by dropwise addition to the 6-well plate. After transient transfection for 6 hours, cells were digested with trypsin (Gibco, 25200-056) for one minute, followed by centrifugation at 1000 rpm for 3 minutes. 5000 HEK293T cells in 40 µL DMEM medium were seeded into a 384-well plate (Corning 3765), followed by being placed overnight in a constant incubator at 37°C, 5% CO2. Then, 40 nL of the compound was added to the 384-well plate using an Echo 655 Liquid Handler, with a highest final concentration of 10 µM, and a 1:3 serial dilution to give a total of 10 concentrations, followed by incubation at 37°C, 5% CO2 for 24 hours. The 384-well plate was removed and equilibrated to room temperature. 40 µL Nano-Glo® HiBiT Lytic Detection System (Promega N3030) was added to each well. After incubation at room temperature for 15 minutes, the fluorescence values were recorded using EnVision Xcite Multilabel Reader (PerkinElmer 2105-0020). Data were fitted and analyzed using Prism 9.3 software with non-linear regression (non-liner inhibitor(Bell-shaped)) and a 4 parameter, with parameters as follows: • Span1=Plateau1[…] • Span2=Plateau2-Dip Section1 = Span1/(1+10^(∧)((LogEC50_1−X)*nH1)) [formula] Section2 = Span2/(1+10^(∧)((X−LogEC50_2)*nH2)) [formula]
as §1

For `Cn1c(=O)n(C2CCC(=O)NC2=O)c2cccc(N3CCC4(CCN(C[C@H]5CC[C@H](n6nc(C(F)F)c7cc(-c8ccc9cc(C(N)=O)cnn89)ncc76)CC5)CC4)CC3)c21` (some centres unmarked) [Compound 1], the Dmax on IRAK4 [1] is greater than 70%; at IRAK4 [2] it was greater than 80%. Besides, the DC50 is less than 10 nM at IRAK4 [1] and less than 0.5 nM on IRAK4 [2].
On IRAK4 [1], `Cn1c(=O)n(C2CCC(=O)NC2=O)c2cccc(N3CCC(N4CCN(C[C@H]5CC[C@H](n6nc(C(F)F)c7cc(-c8ccc9cc(C(N)=O)cnn89)ncc76)CC5)CC4)CC3)c21` (some centres unmarked) [Compound 2] yielded a Dmax greater than 70% and a DC50 of less than 10 nM. At IRAK4 [2], this compound gave a Dmax greater than 80% and a DC50 of less than 0.5 nM.
At IRAK4 [2], `Cn1c(=O)n(C2CCC(=O)NC2=O)c2cccc(N3CCC4(CCN(C[C@H]5CC[C@H](n6nc(C(F)F)c7cc(-c8ccc9cc(C(N)=O)cnn89)ncc76)CC5)CC4)C3)c21` (some centres unmarked) [Compound 3] showed a Dmax of 70 to 80% and a DC50 of less than 0.5 nM.
For `Cn1c(=O)n(C2CCC(=O)NC2=O)c2cccc(N3CCN(C[C@H]4CC[C@H](n5nc(C(F)F)c6cc(-c7ccc8cc(C(N)=O)cnn78)ncc65)CC4)CC3)c21` (some centres unmarked) [Compound 4], in that order: less than 60% and 1 to 5 nM.
As for `Cn1c(=O)n(C2CCC(=O)NC2=O)c2cccc(N3CCN(C4CCN(C[C@H]5CC[C@H](n6nc(C(F)F)c7cc(-c8ccc9cc(C(N)=O)cnn89)ncc76)CC5)CC4)CC3)c21` (some centres unmarked) [Compound 5], on IRAK4 [1], the Dmax fell in the range of 60 to 70% and the DC50 was less than 10 nM. At IRAK4 [2], this compound gave a Dmax greater than 80% and a DC50 of less than 0.5 nM.
For `Cn1c(=O)n(C2CCC(=O)NC2=O)c2cccc(N3CCC4(CCN(C[C@H]5CC[C@H](n6nc(C(F)F)c7cc(-c8ccc9cc(C(N)=O)cnn89)ncc76)CC5)C4)CC3)c21` (some centres unmarked) [Compound 6], in that order: greater than 70%, less than 10 nM, greater than 80% and less than 0.5 nM.
As to `Cn1c(=O)n(C2CCC(=O)NC2=O)c2cccc(N[C@H]3CC[C@H](N(C)C[C@H]4CC[C@H](n5nc(C(F)F)c6cc(-c7ccc8cc(C(N)=O)cnn78)ncc65)CC4)CC3)c21` (some centres unmarked) [Compound 7], at IRAK4 [2], the Dmax is 60 to 70% and the DC50 was less than 0.5 nM.
For `Cn1c(=O)n(C2CCC(=O)NC2=O)c2cccc(C#CCOC3CCN(C[C@H]4CC[C@H](n5nc(C(F)F)c6cc(-c7ccc8cc(C(N)=O)cnn78)ncc65)CC4)CC3)c21` (some centres unmarked) [Compound 8], in that order: 70 to 80% and less than 0.5 nM.
As to `C[C@H]1CN(c2cccc3c2n(C)c(=O)n3C2CCC(=O)NC2=O)CCN1C[C@H]1CC[C@H](n2nc(C(F)F)c3cc(-c4ccc5cc(C(N)=O)cnn45)ncc32)CC1` (some centres unmarked) [Compound 9], the DC50 on IRAK4 [1] (read-out: DC50) was greater than 30 nM.
At IRAK4 [1], `Cn1nc(C2CCC(=O)NC2=O)c2cccc(-c3cnn(C4CCN(C[C@H]5CC[C@H](n6nc(C(F)F)c7cc(-c8ccc9cc(C(N)=O)cnn89)ncc76)CC5)CC4)c3)c21` (some centres unmarked) [Compound 10] came in with a Dmax greater than 70% and a DC50 of less than 10 nM.
As to `Cn1c(=O)n(C2CCC(=O)NC2=O)c2cccc(-c3cnn(C4CCN(C[C@H]5CC[C@H](n6nc(C(F)F)c7cc(-c8ccc9cc(C(N)=O)cnn89)ncc76)CC5)CC4)c3)c21` (some centres unmarked) [Compound 11], at IRAK4 [1], the Dmax is less than 60% and the DC50 is greater than 30 nM.
For `C[C@@H]1CN(C2CCN(c3cccc4c3n(C)c(=O)n4C3CCC(=O)NC3=O)CC2)CCN1C[C@H]1CC[C@H](n2nc(C(F)F)c3cc(-c4ccc5cc(C(N)=O)cnn45)ncc32)CC1` (some centres unmarked) [Compound 12], in that order: 60 to 70% and greater than 30 nM.
For `C[C@H]1CN(C2CCN(c3cccc4c3n(C)c(=O)n4C3CCC(=O)NC3=O)CC2)CCN1C[C@H]1CC[C@H](n2nc(C(F)F)c3cc(-c4ccc5cc(C(N)=O)cnn45)ncc32)CC1` (some centres unmarked) [Compound 13], in that order: greater than 70% and greater than 30 nM.
For `C[C@@H]1CC2(CCN(c3cccc4c3n(C)c(=O)n4C3CCC(=O)NC3=O)CC2)CN1C[C@H]1CC[C@H](n2nc(C(F)F)c3cc(-c4ccc5cc(C(N)=O)cnn45)ncc32)CC1` (some centres unmarked) [Compound 17], in that order: greater than 70% and greater than 30 nM.
Take `Cn1nc(C2CCC(=O)NC2=O)c2cccc(N3CCC(N4CCN(C[C@H]5CC[C@H](n6nc(C(F)F)c7cc(-c8ccc9cc(C(N)=O)cnn89)ncc76)CC5)CC4)CC3)c21` (some centres unmarked) [Compound 19]: at IRAK4 [1], the Dmax was greater than 70% and the DC50 was less than 10 nM.
On IRAK4 [1], `Cn1nc(C2CCC(=O)NC2=O)c2cccc(N3CCC4(CCN(C[C@H]5CC[C@H](n6nc(C(F)F)c7cc(-c8ccc9cc(C(N)=O)cnn89)ncc76)CC5)C4)CC3)c21` (some centres unmarked) [Compound 20] displayed a Dmax of less than 60% and a DC50 of 10 to 30 nM.
For `C[C@H]1CN(C[C@H]2CC[C@H](n3nc(C(F)F)c4cc(-c5ccc6cc(C(N)=O)cnn56)ncc43)CC2)CCN1C1CCN(c2cccc3c2n(C)c(=O)n3C2CCC(=O)NC2=O)CC1` (some centres unmarked) [Compound 22], in that order: less than 60% and greater than 30 nM.

The record behind these values is patent EP4796548A1, “PROTEOLYSIS-TARGETING CHIMERA COMPOUND FOR DEGRADING IRAK4 AND USE THEREOF” (Dovetree Medicines Unus, Inc., priority 2023, dated 2025).
